Results reported in patent US6689806B1, “Indolinone compounds as kinase inhibitors” (Sugen, Inc., priority 1999, dated 2004).
Where two headings read alike, the source gives them in different places.

Legend:
Her2 = molecular target: T1, Her2 (Homo sapiens, UniProt P04626); assay: HER-2 ELISA: EGF receptor-HER2 chimeric receptor assay in whole cells (HER2 kinase); assay type: cell-based; conditions: NIH3T3 cells with EGFR/HER2 chimeric receptor, phosphotyrosine ELISA
T1 construct: fused on or other part: P00533 (Epidermal growth factor receptor)
How it was run: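 NIH3T3 cells expressing an EGFR extracellular/HER2 kinase-domain chimera, serum-reduced (0.5%), pretreated 2 h with compound (1% DMSO final), then stimulated 5 min with 100 nM EGF at room temperature. Lysate phosphotyrosine quantified by anti-pTyr ELISA, OD 410 nm; % inhibition after negative-control subtraction.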

PDGFR = PDGFR (Homo sapiens, UniProt P09619); assay: Biochemical PDGFR assay (ELISA); design: expressed in transfected cells; host or cells: NIH 3T3; conditions: read-out: PDGFr biochem IC50
Experimental: This assay measures the in vitro kinase activity of PDGFR using ELISA.
6. PDGFR-β expressing NlH 3T3 cell lysate.
1. Coat Corning 96 well ELISA plates with 0.5 μg 28D4C10 in 100 μL PBS per well, store overnight at 4° C.
5. Dilute lysate in HNTG (10 μg lysate/100 μL HNTG)
6. Add 100 μL of diluted lysate to each well. Shake at room temperature for 60 min.
8. Add 80 μL working kinase buffer mix to ELISA plate containing captured PDGFR.
9. Dilute test compound 1:10 in TBS in 96-well polypropylene plates (i.e., 10 μL compound+90 μL TBS).
10. Add 10 μL diluted test compound to ELISA plate.
11. Incubate for 30 minutes while shaking at room temperature.
12. Add 10 μL ATP directly to all wells except negative control well (final well volume should be approximately 100 μL with 20 μM ATP in each well.) Incubate 30 minutes while shaking.
13. After 30 minutes, stop reaction by adding 10 μL of 200 mM EDTA (pH 8.0) to each well.
15. Add 100 μL anti-phosphotyrosine (1:3000 dilution in TBST) per well. Incubate 30-45 min. at room temperature, with shaking.
17. Add 100 μL Biosource Goat anti-rabbit IgG peroxidase conjugate (1:2000 dilution in TBST) to each well. Incubate 30 min. at room temperature, with shaking.
19. Add 100 μL of ABTS/H2O2 solution to each well.
22. Read assay on Dynatech MR7000 ELISA reader: test filter: 410 nM, reference filter: 630 nM.

EGFR = EGFR (Homo sapiens, UniProt P00533); assay: Biochemical EGFR assay (ELISA); design: A431 cell lysate; endogenous in cells; host or cells: A431; conditions: read-out: EGFr biochem IC50
How it was run: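 EGFR is captured from cell lysate onto SUMO1-coated plates and incubated with compound diluted in TBS. The kinase reaction is stopped after 5 min with EDTA. Substrate phosphotyrosine is detected with anti-phosphotyrosine and peroxidase-linked secondary antibody, then ABTS/H2O2 read at 410 nm (reference 630 nm).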

SKOV3 = SKOV3 growth; assay type: cell-based; conditions: Homo sapiens, SK-OV-3, SKOV3 cells
A431 = A431 growth; assay type: cell-based; conditions: Homo sapiens, A-431, A431 cells
[1] = Table 7, in vitro kinase activity
[2] = Table 5, in vitro kinase activity

PDGFR, sequence (P09619 33-1106): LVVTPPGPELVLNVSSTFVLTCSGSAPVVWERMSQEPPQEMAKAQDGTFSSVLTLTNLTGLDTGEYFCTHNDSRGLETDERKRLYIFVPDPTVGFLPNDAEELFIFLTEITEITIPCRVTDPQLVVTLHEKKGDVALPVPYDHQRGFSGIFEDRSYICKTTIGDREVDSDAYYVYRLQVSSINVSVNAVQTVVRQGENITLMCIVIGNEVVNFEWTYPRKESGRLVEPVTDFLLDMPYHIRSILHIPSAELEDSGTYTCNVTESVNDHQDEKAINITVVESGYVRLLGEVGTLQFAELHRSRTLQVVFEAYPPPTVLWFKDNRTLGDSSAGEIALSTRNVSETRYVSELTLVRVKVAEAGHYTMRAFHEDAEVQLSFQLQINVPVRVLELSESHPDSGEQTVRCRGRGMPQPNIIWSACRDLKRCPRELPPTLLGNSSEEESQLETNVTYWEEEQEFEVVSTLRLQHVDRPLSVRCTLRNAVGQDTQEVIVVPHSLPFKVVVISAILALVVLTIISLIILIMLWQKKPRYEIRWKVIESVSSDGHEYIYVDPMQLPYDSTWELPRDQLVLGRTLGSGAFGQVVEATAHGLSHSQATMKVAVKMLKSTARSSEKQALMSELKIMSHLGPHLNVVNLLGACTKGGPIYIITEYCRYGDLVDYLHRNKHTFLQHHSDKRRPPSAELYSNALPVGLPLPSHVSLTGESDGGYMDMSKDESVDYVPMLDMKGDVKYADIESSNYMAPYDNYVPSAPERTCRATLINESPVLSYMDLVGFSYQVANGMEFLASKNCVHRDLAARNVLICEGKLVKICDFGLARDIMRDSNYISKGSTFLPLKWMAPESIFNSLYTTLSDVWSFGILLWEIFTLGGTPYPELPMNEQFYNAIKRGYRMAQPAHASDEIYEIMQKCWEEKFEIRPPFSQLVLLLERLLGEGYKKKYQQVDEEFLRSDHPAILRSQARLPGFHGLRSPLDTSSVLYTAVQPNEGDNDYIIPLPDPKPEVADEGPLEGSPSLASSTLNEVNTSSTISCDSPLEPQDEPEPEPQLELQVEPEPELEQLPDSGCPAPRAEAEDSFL
T1 sequence (P04626 676-1255 limits assumed): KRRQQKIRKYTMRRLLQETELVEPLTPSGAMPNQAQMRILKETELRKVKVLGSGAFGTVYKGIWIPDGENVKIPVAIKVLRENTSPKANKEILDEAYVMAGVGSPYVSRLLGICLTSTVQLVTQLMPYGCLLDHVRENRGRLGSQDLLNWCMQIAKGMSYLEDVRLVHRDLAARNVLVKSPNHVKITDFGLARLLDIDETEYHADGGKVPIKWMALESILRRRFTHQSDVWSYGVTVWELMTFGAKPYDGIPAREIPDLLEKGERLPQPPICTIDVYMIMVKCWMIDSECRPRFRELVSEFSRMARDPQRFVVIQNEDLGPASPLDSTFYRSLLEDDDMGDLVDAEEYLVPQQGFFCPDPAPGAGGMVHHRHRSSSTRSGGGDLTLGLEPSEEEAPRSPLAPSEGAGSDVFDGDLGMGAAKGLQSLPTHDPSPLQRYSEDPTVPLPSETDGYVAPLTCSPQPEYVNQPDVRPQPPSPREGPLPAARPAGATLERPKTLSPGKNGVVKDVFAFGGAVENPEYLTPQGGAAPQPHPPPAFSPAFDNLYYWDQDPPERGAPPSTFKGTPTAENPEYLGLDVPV
EGFR, sequence (P00533 25-1210): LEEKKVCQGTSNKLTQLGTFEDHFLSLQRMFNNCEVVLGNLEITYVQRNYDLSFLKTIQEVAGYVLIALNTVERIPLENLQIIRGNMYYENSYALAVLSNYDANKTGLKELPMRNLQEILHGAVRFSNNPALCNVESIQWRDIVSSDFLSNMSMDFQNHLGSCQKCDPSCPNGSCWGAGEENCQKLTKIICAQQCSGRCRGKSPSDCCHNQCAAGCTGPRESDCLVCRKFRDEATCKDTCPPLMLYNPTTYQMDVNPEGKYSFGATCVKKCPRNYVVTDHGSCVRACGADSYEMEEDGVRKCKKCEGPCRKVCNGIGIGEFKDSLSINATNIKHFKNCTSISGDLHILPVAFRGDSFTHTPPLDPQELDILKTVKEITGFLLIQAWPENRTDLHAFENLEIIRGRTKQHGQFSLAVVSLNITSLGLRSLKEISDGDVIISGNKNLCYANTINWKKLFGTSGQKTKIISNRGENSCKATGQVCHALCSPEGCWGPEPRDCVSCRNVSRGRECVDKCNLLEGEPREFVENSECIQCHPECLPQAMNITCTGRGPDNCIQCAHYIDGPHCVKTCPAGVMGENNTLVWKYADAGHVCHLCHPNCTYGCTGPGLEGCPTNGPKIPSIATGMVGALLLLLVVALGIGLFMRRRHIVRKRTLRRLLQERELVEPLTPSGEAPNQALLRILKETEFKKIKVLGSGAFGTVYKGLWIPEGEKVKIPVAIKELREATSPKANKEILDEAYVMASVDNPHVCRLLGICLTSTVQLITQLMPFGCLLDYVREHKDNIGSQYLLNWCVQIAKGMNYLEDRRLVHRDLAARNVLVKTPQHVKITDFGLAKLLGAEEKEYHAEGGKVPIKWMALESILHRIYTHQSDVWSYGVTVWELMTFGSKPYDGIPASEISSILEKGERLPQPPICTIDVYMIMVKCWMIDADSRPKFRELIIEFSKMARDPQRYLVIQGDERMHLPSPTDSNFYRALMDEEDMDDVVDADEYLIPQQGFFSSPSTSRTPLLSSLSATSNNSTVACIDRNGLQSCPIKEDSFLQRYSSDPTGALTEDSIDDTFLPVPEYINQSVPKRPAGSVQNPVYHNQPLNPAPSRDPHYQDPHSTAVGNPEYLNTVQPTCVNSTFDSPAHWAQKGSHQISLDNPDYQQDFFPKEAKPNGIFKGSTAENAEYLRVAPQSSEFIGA

O=C1Nc2cccc(CCO)c2/C1=C/c1ccccn1 [IN-005, 4-(2-Hydroxy-ethyl)-3-pyridin-2-ylmethylene-1,3-dihydro-indol-2-one]
IC50 (Her2; Table 7): 12.9 µM | IC50 (PDGFR; [1]): > 100 µM | IC50 (EGFR; [1]): > 100 µM

COc1cccc(-c2ccc3c(c2)NC(=O)C3Cc2ccccc2O)c1 (centres unmarked) [AAI-13, 3-(2-Hydroxybenzyl)-6-(3-methoxyphenyl)-1,3-dihydroindol-2-one]
IC50 (Her2; Table 5): > 100 µM | IC50 (SKOV3; Table 5): > 50 µM | IC50 (A431; Table 5): > 50 µM | IC50 (PDGFR; [2]): > 100 µM | IC50 (EGFR; [2]): > 100 µM

CC(C)c1ccccc1OCCc1cccc2c1CC(=O)N2 [IN-002, 4-[2-(2-Isopropyl-phenoxy)-ethyl]-1,3-dihydro-indol-2-one]
IC50 (Her2; Table 7): 18 µM | IC50 (SKOV3; Table 7): 24.5 µM | IC50 (A431; Table 7): 8.2 µM | IC50 (PDGFR; [1]): > 100 µM | IC50 (EGFR; [1]): > 100 µM

COc1ccc(CC2C(=O)Nc3ccc(F)cc32)cc1C1CCCC1 (centres unmarked) [AAI-5, 3-(3-Cyclopentyl-4-methoxybenzyl)-5-fluoro-1,3-dihydroindol-2-one]
IC50 (Her2; Table 5): 16.4 µM | IC50 (SKOV3; Table 5): 17.9 µM | IC50 (A431; Table 5): 5.26 µM | IC50 (PDGFR; [2]): > 100 µM | IC50 (EGFR; [2]): > 100 µM

O=C1Nc2ccccc2C1Cc1ccc2[nH]ccc2c1 (centres unmarked) [AAI-17, 3-(1H-Indol-5-ylmethyl)-1,3-dihydroindol-2-one]
IC50 (Her2; Table 5): > 100 µM | IC50 (PDGFR; [2]): > 100 µM | IC50 (EGFR; [2]): > 100 µM

Cc1cccc(CC2C(=O)Nc3cccc(CCO)c32)n1 (centres unmarked) [AAI-27, 4-(2-Hydroxyethyl)-3-(6-methylpyridin-2-ylmethyl)-1,3-dihydroindol-2-one]
IC50 (Her2; Table 5): > 100 µM | IC50 (PDGFR; [2]): > 100 µM | IC50 (EGFR; [2]): > 100 µM

COc1ccc(CC2C(=O)Nc3cc(NC(C)=O)ccc32)cc1-c1cccs1 (centres unmarked) [AAI-6, N-[3-(4-Methoxy-3-thiophen-2-ylbenzyl)-2-oxo-2,3-dihydro-1H-indol-6-yl]-acetamide]
IC50 (Her2; Table 5): > 100 µM | IC50 (PDGFR; [2]): > 100 µM | IC50 (EGFR; [2]): > 100 µM

COc1c(C(C)C)cc(CC2C(=O)Nc3ccccc32)cc1C(C)C (centres unmarked) [AAI-10, 3-(3,5-Diisopropyl-4-methoxybenzyl)-1,3-dihydroindol-2-one]
IC50 (Her2; Table 5): 22.2 µM | IC50 (SKOV3; Table 5): 17.3 µM | IC50 (A431; Table 5): 17.7 µM | IC50 (PDGFR; [2]): > 100 µM | IC50 (EGFR; [2]): > 100 µM

CC(C)c1cccc(OCCc2cccc3c2CC(=O)N3)c1 [IN-001, 4-[2-(3-Isopropyl-phenoxy)-ethyl]-1,3-dihydro-indol-2-one]
IC50 (Her2; Table 7): 16.6 µM | IC50 (SKOV3; Table 7): 27.8 µM | IC50 (A431; Table 7): 12.3 µM | IC50 (PDGFR; [1]): > 100 µM | IC50 (EGFR; [1]): > 100 µM

O=C1Nc2cc(-c3ccccc3)ccc2C1Cc1cccc(F)c1O (centres unmarked) [AAI-24, 3-(3-Fluoro-2-hydroxybenzyl)-6-phenyl-1,3-dihydroindol-2-one]
IC50 (Her2; Table 5): 26.1 µM | IC50 (PDGFR; [2]): > 100 µM | IC50 (EGFR; [2]): > 100 µM

Cc1[nH]c(/C=C2\C(=O)Nc3cccc(CCOc4ccc(C(C)C)cc4)c32)c(C)c1CCC(=O)O [IN-024, 3-(5-{4-[2-(4-Isopropyl-phenoxy)-ethyl]-2-oxo-1,2-dihydro-indol-3-ylidenemethyl}-2,4-dimethyl-1H-pyrro-3-yl)-propionic acid]
IC50 (Her2; Table 7): > 100 µM | IC50 (PDGFR; [1]): 97.5 µM | IC50 (EGFR; [1]): > 100 µM

Cc1[nH]c(/C=C2\C(=O)Nc3cccc(CCOc4cccc(C(C)C)c4)c32)c(C)c1CCCN(C)C [IN-023]
IC50 (Her2; Table 7): > 100 µM | IC50 (PDGFR; [1]): 49.1 µM | IC50 (EGFR; [1]): > 100 µM

Cc1[nH]c(CC2C(=O)Nc3ccc(Cl)cc32)c(C)c1CCCN(C)C (centres unmarked) [AAI-23, 5-Chloro-3-[4-(3-dimethylaminopropyl)-3,5-dimethyl-1H-pyrrol-2-ylmethyl]-1,3-dihydroindol-2-one]
IC50 (Her2; Table 5): 54.1 µM | IC50 (PDGFR; [2]): 0.81 µM | IC50 (EGFR; [2]): > 100 µM

O=C1Nc2cccc(CCO)c2/C1=C\c1ccc(Br)cc1 [IN-004, 3-(4-Bromo-benzylidene)-4-(2-hydroxy-ethyl)-1,3-dihydro-indol-2-one]
IC50 (Her2; Table 7): 10.6 µM | IC50 (SKOV3; Table 7): 2.9 µM | IC50 (A431; Table 7): 1.1 µM | IC50 (PDGFR; [1]): > 100 µM | IC50 (EGFR; [1]): > 100 µM

COc1ccc(-c2ccc3c(c2)NC(=O)C3Cc2[nH]c(C)c(CCCN(C)C)c2C)cc1 (centres unmarked) [AAI-22, 3-[4-(3-Dimethylaminopropyl)-3,5-dimethyl-1H-pyrrol-2-ylmethyl]-6-(4-methoxyphenyl)-1,3-dihydroindol-2-one]
IC50 (Her2; Table 5): 21.4 µM | IC50 (SKOV3; Table 5): > 50 µM | IC50 (A431; Table 5): 32.9 µM | IC50 (PDGFR; [2]): 80 µM | IC50 (EGFR; [2]): > 100 µM

COc1ccccc1-c1ccc2c(c1)NC(=O)C2Cc1[nH]c(C)c(CCCN(C)C)c1C (centres unmarked) [AAI-20, 3-[4-(3-Dimethylamino-propyl)-3,5-dimethyl-1H-pyrrol-2-ylmethyl]-6-(2-methoxy-phenyl)-1,3-dihydro-indol-2-one]
IC50 (Her2; Table 5): 20.9 µM | IC50 (SKOV3; Table 5): 8.81 µM | IC50 (A431; Table 5): 11.1 µM | IC50 (PDGFR; [2]): 2.13 µM | IC50 (EGFR; [2]): > 100 µM

COc1ccc(CC2C(=O)Nc3ccc(CCN4CCOCC4)cc32)cc1-c1ccsc1 (centres unmarked) [AAI-8, 3-(4-Methoxy-3-thiophen-3-ylbenzyl)-5-(2-morpholin-4-ylethyl)-1,3-dihydroindol-2-one]
IC50 (Her2; Table 5): > 100 µM | IC50 (PDGFR; [2]): > 100 µM | IC50 (EGFR; [2]): > 100 µM

O=C1Nc2ccc(F)cc2C1Cc1ccc(O)c(C2CCCC2)c1 (centres unmarked) [AAI-11, 3-(3-Cyclopentyl-4-hydroxybenzyl)-5-fluoro-1,3-dihydroindol-2-one]
IC50 (Her2; Table 5): > 100 µM | IC50 (SKOV3; Table 5): 21.8 µM | IC50 (A431; Table 5): 29.6 µM | IC50 (PDGFR; [2]): > 100 µM | IC50 (EGFR; [2]): > 100 µM

Cc1[nH]c(CC2C(=O)Nc3ccccc32)c(C)c1CCCN(C)C (centres unmarked) [AAI-18, 3-[4-(3-Dimethylaminopropyl)-3,5-dimethyl-1H-pyrrol-2-ylmethyl]-1,3-dihydroindol-2-one]
IC50 (Her2; Table 5): 28.5 µM | IC50 (SKOV3; Table 5): 43 µM | IC50 (A431; Table 5): > 50 µM | IC50 (PDGFR; [2]): 0.56 µM | IC50 (EGFR; [2]): > 100 µM

COc1ccc(/C=C2\C(=O)Nc3cccc(CCO)c32)cc1-c1cccs1 [IN-008, 4-(2-Hydroxy-ethyl)-3-(4-methoxy-3-thiophen-2-yl-benzylidene)-1,3-dihydro-indol-2-one]
IC50 (Her2; Table 7): 8.5 µM | IC50 (SKOV3; Table 7): 1.5 µM | IC50 (A431; Table 7): 2.5 µM | IC50 (PDGFR; [1]): > 100 µM | IC50 (EGFR; [1]): > 100 µM

COc1ccc(CC2C(=O)Nc3cc(-c4ccccc4)ccc32)c(O)c1 (centres unmarked) [AAI-25, 3-(2-Hydroxy-4-methoxybenzyl)-6-phenyl-1,3-dihydroindol-2-one]
IC50 (Her2; Table 5): > 100 µM | IC50 (PDGFR; [2]): > 100 µM | IC50 (EGFR; [2]): > 100 µM

Cc1cccc(/C=C2\C(=O)Nc3cccc(CCO)c32)n1 [IN-006]
IC50 (Her2; Table 7): 10.6 µM | IC50 (SKOV3; Table 7): 5 µM | IC50 (A431; Table 7): 6 µM | IC50 (PDGFR; [1]): > 100 µM | IC50 (EGFR; [1]): > 100 µM

O=C1Cc2c(CCOc3cccc(-c4ccccc4)c3)cccc2N1 [IN-003, 4-[2-(Biphenyl-3-yloxy)-ethyl]-1,3-dihydro-indol-2-one]
IC50 (Her2; Table 7): 15.5 µM | IC50 (SKOV3; Table 7): 17.8 µM | IC50 (A431; Table 7): 8.7 µM | IC50 (PDGFR; [1]): 20.2 µM | IC50 (EGFR; [1]): > 100 µM

COc1cccc(-c2ccc3c(c2)NC(=O)C3Cc2[nH]c(C)c(CCCN(C)C)c2C)c1 (centres unmarked) [AAI-21, 3-[4-(3-Dimethylaminopropyl)-3,5-dimethyl-1H-pyrrol-2-ylmethyl]-6-(3-methoxyphenyl)-1,3-dihydroindol-2-one]
IC50 (Her2; Table 5): 52.9 µM | IC50 (PDGFR; [2]): 3.42 µM | IC50 (EGFR; [2]): 48.7 µM

Cc1cccc2c1C(Cc1ccc3[nH]ccc3c1)C(=O)N2 (centres unmarked) [AAI-16, 3-(1H-Indol-5-ylmethyl)-4-methyl-1,3-dihydroindol-2-one]
IC50 (Her2; Table 5): > 100 µM | IC50 (PDGFR; [2]): > 100 µM | IC50 (EGFR; [2]): > 100 µM

CC(=O)Nc1ccc2c(c1)NC(=O)C2Cc1ccc(OCCN2CCOCC2)c(C2CCCCC2)c1 (centres unmarked) [AAI-7, N-{3-[3-Cyclohexyl-4-(2-morpholin-4-ylethoxy)-benzyl]-2-oxo-2,3-dihydro-1H-indol-6-yl}-acetamide]
IC50 (Her2; Table 5): > 100 µM | IC50 (PDGFR; [2]): > 100 µM | IC50 (EGFR; [2]): > 100 µM

Cc1ccc(O)c(C=C2C(=O)Nc3cccc(CCO)c32)n1 (racemic) [IN-022, 4-(2-Hydroxy-ethyl)-3-(3-hydroxy-6-methyl-pyridin-2-ylmethylene)-1,3-dihydro-indol-2-one]
IC50 (Her2; Table 7): > 100 µM | IC50 (PDGFR; [1]): > 100 µM | IC50 (EGFR; [1]): > 100 µM
